≈ marks a conversion by molar mass, not a printed value. Calls of active or inactive are those of the source. The rule behind the calls is not given here.
Columns and labels:
Staphylococcus aureus [1] = test: Antibacterial activity against Staphylococcus aureus 15981 assessed as inhibition of biofilm formation at 10 ug/ml incubated for 5 hrs by confocal microscopic analysis; type: functional, organism-based; settings: dose 10.0 µg/ml
[2] = system: Staphylococcus epidermidis; test: Antibacterial activity against Staphylococcus epidermidis 1457 assessed as inhibition of biofilm formation at 10 ug/ml incubated for 5 hrs by confocal microscopic analysis; type: functional, organism-based; settings: dose 10.0 µg/ml
Staphylococcus aureus [3] = test: Antibacterial activity against methicilin-resistant Staphylococcus aureus 21455 assessed as inhibition of bacterial growth; type: functional
Enterococcus faecium [4] = test: Antibacterial activity against Vancomycin-resistant Enterococcus faecium 1014 assessed as inhibition of bacterial growth; type: functional
Staphylococcus aureus [5] = test: Bactericidal activity against methicilin-resistant Staphylococcus aureus 21455 assessed as reduction in bacterial growth by measuring minimum bactericidal concentration at 4 times MIC by time-kill kinetic assay; type: functional
[6] = system: Staphylococcus saprophyticus; test: Antibacterial activity against Staphylococcus saprophyticus ATCC 49453 assessed as inhibition of bacterial growth; type: functional
Enterococcus faecium [7] = test: Antibacterial activity against Vancomycin-resistant Enterococcus […] ATCC 700802 assessed as inhibition of bacterial growth; type: functional
[8] = Hemolytic activity in rabbit erythrocytes assessed as hemolysis at 512 microg/ml relative to control; type: toxicity, cell-based, Oryctolagus cuniculus, Erythrocyte; settings: at 512 µg/mL, read-out: Activity
Staphylococcus aureus [9] = test: Antibacterial activity against Staphylococcus aureus 29213 assessed as inhibition of bacterial growth; type: functional
Enterococcus faecium [10] = test: Antibacterial activity against Vancomycin-resistant Enterococcus […] ATCC 29212 assessed as inhibition of bacterial growth; type: functional; settings: Enterococcus faecalis
Staphylococcus aureus [11] = test: Antibacterial activity against methicilin-resistant Staphylococcus aureus 1003 assessed as inhibition of bacterial growth; type: functional
Staphylococcus aureus [12] = test: Antibacterial activity against methicilin-resistant Staphylococcus aureus ATCC 700699 assessed as inhibition of bacterial growth; type: functional
Bacillus cereus = test: Antibacterial activity against Bacillus cereus ATCC 11788 assessed as inhibition of bacterial growth; type: functional
Staphylococcus aureus [13] = test: Antibacterial activity against Staphylococcus aureus 4299 assessed as inhibition of bacterial growth; type: functional
[14] = system: Staphylococcus saprophyticus; test: Antibacterial activity against Staphylococcus saprophyticus ATCC 49907 assessed as inhibition of bacterial growth; type: functional
[15] = system: Staphylococcus saprophyticus; test: Antibacterial activity against Staphylococcus saprophyticus ATCC 15305 assessed as inhibition of bacterial growth; type: functional
Staphylococcus aureus [16] = test: Bactericidal activity against methicilin-resistant Staphylococcus aureus 21455 assessed as inhibition of bacterial growth by time-kill kinetic assay; type: functional, organism-based
[17] = system: Staphylococcus epidermidis; test: Antibacterial activity against Staphylococcus epidermidis 12228 assessed as inhibition of bacterial growth; type: functional
Staphylococcus aureus [18] = test: Antibacterial activity against methicilin-resistant Staphylococcus aureus 42412 assessed as inhibition of bacterial growth; type: functional
Bacillus subtilis = test: Antibacterial activity against Bacillus subtilis ATCC 6633 assessed as inhibition of bacterial growth; type: functional
[19] = system: Staphylococcus saprophyticus; test: Antibacterial activity against Staphylococcus saprophyticus ATCC BAA 750 assessed as inhibition of bacterial growth; type: functional
Cell membrane [20] = test: Induction of cytoplasmic membrane depolarization in methicilin-resistant Staphylococcus aureus 21455 at 8 times MIC by DiSC3(5) dye-based fluorescence assay
Cell membrane [21] = test: Induction of cell membrane […] in methicilin-resistant Staphylococcus aureus 21455 assessed as increase in fluorescence intensity at 16 times MIC by SYTOX green dye based fluorescence analysis; type: cell membranes
Staphylococcus aureus [22] = test: Bactericidal activity against methicilin-resistant Staphylococcus aureus 21455 assessed as reduction in bacterial colony forming unit at 16 times MIC observed after 24 hrs by time-kill kinetic assay; type: functional, organism-based
Cell membrane [23] = test: Induction of cytoplasmic membrane depolarization in methicilin-resistant Staphylococcus aureus 21455 at 16 times MIC by DiSC3(5) dye-based fluorescence assay
Pseudomonas aeruginosa [24] = test: Antibacterial activity against Pseudomonas aeruginosa ATCC 9027 assessed as inhibition of bacterial growth; type: functional
Staphylococcus aureus [25] = test: Bactericidal activity against methicilin-resistant Staphylococcus aureus 21455 assessed as reduction in bacterial colony forming unit at 16 times MIC observed after 8 hrs by time-kill kinetic assay; type: functional, organism-based
Pseudomonas aeruginosa [26] = test: Antibacterial activity against Pseudomonas aeruginosa DSMZ 1117 assessed as inhibition of bacterial growth; type: functional
Cell membrane [27] = test: Induction of cell membrane […] in methicilin-resistant Staphylococcus aureus 21455 assessed as increase in fluorescence intensity at 8 times MIC by SYTOX green dye based fluorescence analysis; type: cell membranes

## CN[C@H](CC(C)C)C(=O)N[C@H]1C(=O)N[C@@H](CC(N)=O)C(=O)N[C@H]2C(=O)N[C@H]3C(=O)N[C@H](C(=O)N[C@H](C(=O)O)c4cc(O)cc(O)c4-c4cc3ccc4O)[C@H](O)c3ccc(c(Cl)c3)Oc3cc2cc(c3O[C@@H]2O[C@H](CO)[C@@H](O)[C@H](O)[C@H]2O[C@H]2C[C@](C)(N)[C@H](O)[C@H](C)O2)Oc2ccc(cc2Cl)[C@H]1O
Staphylococcus aureus [1]
  Activity: Active
[2]
  Activity: Active

## CCCC[C@@H]1NC(=O)[C@H](C)NC(=O)[C@H](NC(=O)[C@H](CO)NC(=O)[C@@H](NC(=O)[C@H](NC(=O)[C@@H](CCC(N)=O)NC(=O)[C@H](CO)NC(=O)[C@@H](NC(=O)[C@@H](Cc2ccccc2)NC)[C@@H](C)CC)[C@@H](C)CC)[C@@H](C)CC)[C@H](C)OC(=O)[C@H]([C@@H](C)CC)NC1=O
Staphylococcus aureus [3]
  MIC: 0.25 µg/mL (≈ 0.208 µM)
Staphylococcus aureus [1]
  Activity: Active
Enterococcus faecium [4]
  MIC: 1 µg/mL (≈ 0.832 µM)
Staphylococcus aureus [5]
  MBC: 1 µg/mL (≈ 0.832 µM)
[6]
  MIC: 0.063 µg/mL (≈ 0.0524 µM)
Enterococcus faecium [7]
  MIC: 0.5 µg/mL (≈ 0.416 µM)
[8]
  hemolysis at 512 microg/ml: ≤ 2%
Staphylococcus aureus [9]
  MIC: 0.063 µg/mL (≈ 0.0524 µM)
Enterococcus faecium [10]
  MIC: 1 µg/mL (≈ 0.832 µM)
Staphylococcus aureus [11]
  MIC: 0.5 µg/mL (≈ 0.416 µM)
Staphylococcus aureus [12]
  MIC: 0.5 µg/mL (≈ 0.416 µM)
Bacillus cereus
  MIC: 0.063 µg/mL (≈ 0.0524 µM)
Staphylococcus aureus [13]
  MIC: 0.25 µg/mL (≈ 0.208 µM)
[14]
  MIC: 0.063 µg/mL (≈ 0.0524 µM)
[15]
  MIC: 0.063 µg/mL (≈ 0.0524 µM)
[2]
  Activity: Active
Staphylococcus aureus [16]
  Activity: Dose-Dependent Effect
[17]
  MIC: 0.063 µg/mL (≈ 0.0524 µM)
Staphylococcus aureus [18]
  MIC: 0.125 µg/mL (≈ 0.104 µM)
Bacillus subtilis
  MIC: 0.063 µg/mL (≈ 0.0524 µM)
[19]
  MIC: 0.063 µg/mL (≈ 0.0524 µM)

## CC[C@H](C)[C@H](NC(=O)[C@@H](Cc1ccccc1)NC)C(=O)N[C@@H](CO)C(=O)N[C@H](CCCNC(=N)N)C(=O)N[C@@H](C(=O)N[C@H](C(=O)N[C@@H](CO)C(=O)N[C@H]1C(=O)N[C@@H](C)C(=O)N[C@@H](C2CCCCC2)C(=O)N[C@@H]([C@@H](C)CC)C(=O)O[C@H]1C)[C@@H](C)CC)[C@@H](C)CC
Staphylococcus aureus [3]
  MIC: 0.25 µg/mL (≈ 0.199 µM)
Cell membrane [20]
  Activity: inactive
Cell membrane [21]
  Activity: Active
Staphylococcus aureus [22]
  Activity: Active
Staphylococcus aureus [1]
  Activity: Active
Enterococcus faecium [4]
  MIC: 0.063 µg/mL (≈ 0.0502 µM)
[6]
  MIC: < 0.063 µg/mL
Enterococcus faecium [7]
  MIC: 0.063 µg/mL (≈ 0.0502 µM)
Cell membrane [23]
  Activity: inactive
[8]
  hemolysis at 512 microg/ml: ≤ 2%
Pseudomonas aeruginosa [24]
  MIC: > 32 µg/mL
Staphylococcus aureus [9]
  MIC: 0.063 µg/mL (≈ 0.0502 µM)
Enterococcus faecium [10]
  MIC: 0.063 µg/mL (≈ 0.0502 µM)
Staphylococcus aureus [11]
  MIC: 0.063 µg/mL (≈ 0.0502 µM)
Staphylococcus aureus [12]
  MIC: 0.063 µg/mL (≈ 0.0502 µM)
Bacillus cereus
  MIC: 0.063 µg/mL (≈ 0.0502 µM)
Staphylococcus aureus [13]
  MIC: 0.063 µg/mL (≈ 0.0502 µM)
[14]
  MIC: 0.063 µg/mL (≈ 0.0502 µM)
[15]
  MIC: < 0.063 µg/mL
[2]
  Activity: Active
Staphylococcus aureus [25]
  Activity: Active
Staphylococcus aureus [16]
  Activity: Dose-Dependent Effect
[17]
  MIC: 0.063 µg/mL (≈ 0.0502 µM)
Staphylococcus aureus [18]
  MIC: 0.063 µg/mL (≈ 0.0502 µM)
Pseudomonas aeruginosa [26]
  MIC: > 32 µg/mL
Bacillus subtilis
  MIC: 0.063 µg/mL (≈ 0.0502 µM)
Cell membrane [27]
  Activity: Active
[19]
  MIC: 0.063 µg/mL (≈ 0.0502 µM)

Reference: ChEMBL document CHEMBL5634143, “Development of teixobactin analogues containing hydrophobic, non-proteogenic amino acids that are highly potent against multidrug-resistant bacteria and biofilms” (Eur J Med Chem, 2023)
